According to PubChem BioAssay (NCI):
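Compound exposure: 48 hours, 5 concentrations, 96-well plates. At the GI50, growth is halved. The concentration for full growth arrest is given as TGI.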

Columns and labels:
Test in all cases: DTP human tumour cell line panel, 48 h
[1] = system: 786-0 renal
[2] = system: A498 renal
[3] = system: A549 NSCLC
[4] = system: ACHN renal
[5] = system: BT-549 breast
[6] = system: CAKI-1 renal
[7] = system: CCRF-CEM leukemia
[8] = system: COLO 205 colon
[9] = system: DU-145 prostate
[10] = system: EKVX NSCLC
[11] = system: HCC-2998 colon
[12] = system: HCT-116 colon
[13] = system: HCT-15 colon
[14] = system: HL-60(TB) leukemia
[15] = system: HOP-62 NSCLC
[16] = system: HOP-92 NSCLC
[17] = system: HS 578T breast
[18] = system: HT29 colon
[19] = system: IGROV1 ovarian
[20] = system: K-562 leukemia
[21] = system: KM12 colon
[22] = system: LOX IMVI melanoma
[23] = system: M14 melanoma
[24] = system: MALME-3M melanoma
[25] = system: MCF7 breast
[26] = system: MDA-MB-231 breast
[27] = system: MDA-MB-435
[28] = system: MDA-MB-468 breast
[29] = system: MOLT-4 leukemia
[30] = system: NCI-H226 lung
[31] = system: NCI-H23 lung
[32] = system: NCI-H460 lung
[33] = system: NCI-H522 lung
[34] = system: OVCAR-3 ovarian
[35] = system: OVCAR-4 ovarian
[36] = system: OVCAR-5 ovarian
[37] = system: OVCAR-8 ovarian
[38] = system: PC-3 prostate
[39] = system: RPMI-8226 leukemia
[40] = system: RXF 393 renal
[41] = system: SF-268 CNS
[42] = system: SF-295 CNS
[43] = system: SF-539 CNS
[44] = system: SK-MEL-2 melanoma
[45] = system: SK-MEL-28 melanoma
[46] = system: SK-MEL-5 melanoma
[47] = system: SK-OV-3 ovarian
[48] = system: SN12C renal
[49] = system: SNB-19 CNS
[50] = system: SR leukemia
[51] = system: SW-620 colon
[52] = system: T-47D breast
[53] = system: TK-10 renal
[54] = system: U251 CNS
[55] = system: UACC-257 melanoma
[56] = system: UACC-62 melanoma
[57] = system: UO-31 renal

O=C1CCC(N2C(=O)c3cccc(NCCOCCOCCOCCC(=O)NCCCC(=O)NC(c4ccc5c(c4)OCO5)c4cc(Cl)c5cccnc5c4O)c3C2=O)C(=O)C1 (centres undefined)
GI50 [1]: 29.6 µM | TGI [1]: > 99 µM | GI50 [2]: > 99 µM | TGI [2]: > 99 µM | GI50 [3]: 41.5 µM | TGI [3]: > 99 µM | GI50 [4]: 52.5 µM | TGI [4]: > 99 µM | GI50 [5]: 8.58 µM | TGI [5]: 42.3 µM | GI50 [6]: 28.3 µM | TGI [6]: > 99 µM | GI50 [7]: 3.34 µM | TGI [7]: > 99 µM | GI50 [8]: 5.04 µM | TGI [8]: > 99 µM | GI50 [9]: 37.5 µM | TGI [9]: > 99 µM | GI50 [10]: 17.2 µM | TGI [10]: > 99 µM | GI50 [11]: 6.03 µM | TGI [11]: 30.8 µM | GI50 [12]: 22.2 µM | TGI [12]: > 99 µM | GI50 [13]: 37.4 µM | TGI [13]: > 99 µM | GI50 [14]: 2.41 µM | TGI [14]: 23.1 µM | GI50 [15]: 7.19 µM | TGI [15]: > 99 µM | GI50 [16]: 4.29 µM | TGI [16]: 52.3 µM | GI50 [17]: 8.43 µM | TGI [17]: > 99 µM | GI50 [18]: 26.4 µM | TGI [18]: > 99 µM | GI50 [19]: 3.77 µM | TGI [19]: > 99 µM | GI50 [20]: 5.3 µM | TGI [20]: > 99 µM | GI50 [21]: 4.5 µM | TGI [21]: > 99 µM | GI50 [22]: 4.29 µM | TGI [22]: 22.2 µM | GI50 [23]: 14 µM | TGI [23]: > 99 µM | GI50 [24]: 11.8 µM | TGI [24]: 90.8 µM | GI50 [25]: 3.69 µM | TGI [25]: > 99 µM | GI50 [26]: 4.32 µM | TGI [26]: 29.5 µM | GI50 [27]: 5.8 µM | TGI [27]: > 99 µM | GI50 [28]: 2.56 µM | TGI [28]: 7.77 µM | GI50 [29]: 4.8 µM | TGI [29]: > 99 µM | GI50 [30]: 14.5 µM | TGI [30]: 72.2 µM | GI50 [31]: 12.7 µM | TGI [31]: > 99 µM | GI50 [32]: 4.81 µM | TGI [32]: 42.9 µM | GI50 [33]: 4.39 µM | TGI [33]: 41.5 µM | GI50 [34]: 3.33 µM | TGI [34]: > 99 µM | GI50 [35]: 14.4 µM | TGI [35]: 84.3 µM | GI50 [36]: 19.5 µM | TGI [36]: > 99 µM | GI50 [37]: 11.9 µM | TGI [37]: 75.1 µM | GI50 [38]: 7.83 µM | TGI [38]: > 99 µM | GI50 [39]: 7.12 µM | TGI [39]: > 99 µM | GI50 [40]: 8.56 µM | TGI [40]: 33.3 µM | GI50 [41]: 4.38 µM | TGI [41]: > 99 µM | GI50 [42]: 25.4 µM | TGI [42]: > 99 µM | GI50 [43]: 4.21 µM | TGI [43]: 26.6 µM | GI50 [44]: 4.89 µM | TGI [44]: 34.6 µM | GI50 [45]: 5.95 µM | TGI [45]: 61 µM | GI50 [46]: 14 µM | TGI [46]: 43.8 µM | GI50 [47]: 14.6 µM | TGI [47]: > 99 µM | GI50 [48]: 5.42 µM | TGI [48]: > 99 µM | GI50 [49]: 6.32 µM | TGI [49]: > 99 µM | GI50 [50]: 5.26 µM | TGI [50]: > 99 µM | GI50 [51]: 12.6 µM | TGI [51]: > 99 µM | GI50 [52]: 5.06 µM | TGI [52]: > 99 µM | GI50 [53]: 62.1 µM | TGI [53]: > 99 µM | GI50 [54]: 6.8 µM | TGI [54]: > 99 µM | GI50 [55]: 8.95 µM | TGI [55]: 85.7 µM | GI50 [56]: 3.76 µM | TGI [56]: 22.7 µM | GI50 [57]: 33.6 µM | TGI [57]: > 99 µM
